One test concerns thromboxane synthetase. The following applies: prior art compounds, as noted in British patent specification; cited from earlier work.
In another test the target is T1, TXA2 synthetase (Homo sapiens, UniProt P24557).
T1 construct: human platelet microsomes (HPM); from tissue; host or cells: human platelet microsomes
T1 sequence (P24557 1-533): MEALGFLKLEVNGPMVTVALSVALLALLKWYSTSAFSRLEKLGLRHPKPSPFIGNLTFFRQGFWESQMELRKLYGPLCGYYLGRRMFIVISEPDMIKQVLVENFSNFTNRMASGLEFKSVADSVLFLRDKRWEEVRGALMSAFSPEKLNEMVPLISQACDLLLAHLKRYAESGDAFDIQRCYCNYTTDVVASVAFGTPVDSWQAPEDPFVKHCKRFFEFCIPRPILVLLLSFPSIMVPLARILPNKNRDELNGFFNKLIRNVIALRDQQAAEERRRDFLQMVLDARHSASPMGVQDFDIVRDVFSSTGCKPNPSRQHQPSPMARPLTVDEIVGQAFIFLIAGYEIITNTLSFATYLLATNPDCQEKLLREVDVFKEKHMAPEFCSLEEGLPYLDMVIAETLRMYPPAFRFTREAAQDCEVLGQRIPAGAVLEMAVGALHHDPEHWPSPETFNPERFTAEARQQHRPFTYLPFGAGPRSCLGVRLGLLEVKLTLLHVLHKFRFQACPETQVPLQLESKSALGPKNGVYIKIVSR
The test is described as follows: TXA2 inhibition test: TXA2 generated from PGH2 with human platelet microsomes, response of superfused rabbit aortic strips. The class given is biochemical. Conditions: rabbit aorta response. As to the method: The compounds of the present invention were tested for TXA2 inhibition as follows:
Rabbit aortic strips were superfused in series with Krebs solution. Thromboxane A2 (TXA2) was generated by mixing prostaglandin H2 (PGH2) with human platelet microsomes (HPM).
Potential inhibitors were tested by comparing the response of the rabbit aorta to the amount of TXA2 produced by mixing PGH2 and HPM without the test compound in the reaction medium and then the amount of TXA2 produced when the test compound was added to the HPM 5 minutes before the HPM was mixed with PGH2. […] For a discussion of TXA2 synthetase inhibition testing see, e.g., R. Gorman, supra.

Take “sodium p-benzyl-4(1-oxo-2-(4-chlorobenzyl)-3-phenylpropyl)phenyl phosphate”: the “inhibitory activity on thromboxane synthetase (in words)” value (“inhibitory activity” below) with thromboxane synthetase is reported as “very weak”.

With `c1cncc(-c2ccc3c(c2)CN2CN3Cc3cc(-c4cccnc4)ccc32)c1` [Example 1, 2,8-Di(3-pyridyl)-6H,12H-5,11-methanodibenzo[b,f][1,5]diazocine], at TXA2 synthetase, the “effectiveness in inhibiting TXA2 formation (in words)” value is on record as “most effective”.

With `CCCCCC=CC[C@@H](C=CC=CCC=CCCCC(=O)O)OO` [12L-hydroperoxy-5,8,10,14-eicosatetraenoic acid], the “inhibitory activity” value with thromboxane synthetase is “very weak”.

As to `CC(Cc1ccc(O)c(O)c1)C(C)Cc1ccc(O)c(O)c1` (stereo not shown) [nordihydroguaiaretic acid], in the test on thromboxane synthetase, the “inhibitory activity” value was “very weak”.

(Values after patent US4447607A, “Dibenzo diazacines” (The Upjohn Company, priority 1982, dated 1984).)
